Results as given in patent publication US20130064890A1, “PHARMACEUTICAL FORMULATION BASED ON IBUPROFEN AND CODEINE HAVING IMPROVED STABILITY” ([…] MANUFACTURING, S.L., priority 2010, published 2013).

Experiment: Differential Scanning Calorimetry (DSC) detection of incompatibilities, binary mixtures in equal parts
Type: physicochemical
Conditions: mixture in equal parts with ibuprofen, heating rate 5° C./min
Protocol: The technique called Differential Scanning calorimetry or DSC has been used for the thermal detection of possible incompatibilities among ingredients of the pharmaceutical formulation described in the present invention. Thus, by using a differential Scanning calorimeter, DSC-7 (Perkin-Elmer, USA) at a heating rate of the samples of 5° C./min, the quantity of energy or enthalpy required to keep the sample at the same temperature as that of the reference and that at each of the test temperatures is measured. […] However, when phase changes occur, the isothermal energy required is registered as an electric signal generated by thermocouples. It is understood that a change of phase occurs (or appearance of incompatibility) if the expected temperature value varies above the considered environment by 10% with respect to its original. Said error is carried from that produced typically in the analytical measurements (±5%, typical in terms of reproducibility), the uncertainty of apparatus calibration (±1%), the accuracy of the micromixture of ingredients achieved (±3%), and the rapid heating rates (±1% for heating>1° C./min). DSC is widely used in the industry as a quality control instrument due to its applicability in assessing the purity of the samples and studying the curing of the polymers. […]

## CCCCCCCCCCCCCCCCCCOC(=O)/C=C/C(=O)[O-].[Na+] [sodium stearyl fumarate]
  thermal/physical incompatibility with ibuprofen by DSC: does not show any physical incompatibility

## magnesium stearate
  thermal/physical incompatibility with ibuprofen by DSC: incompatible eutectic mixture
